According to patent US4698352A, “4-oxo-1,4-dihydronicotinic acid derivatives, salts thereof, and antibacterial agents containing the same” (Toyama Chemical Co., Ltd., priority 1982, dated 1987):
≈ marks a conversion by molar mass, not a printed value. Read-outs that look alike come from different tables or passages of the source.

Legend:
Assay in all cases: Antibacterial activity (MIC), agar dilution
Assay type in all cases: cell-based
St. aureus F-137* = conditions: Staphylococcus aureus, 20 h, St. aureus F-137, penicillinase-producing; 10^6 cells per ml; read-out: MIC
Text: (§1) The amount of bacteria inoculated was 10^4 cells per plate (10^6 cells per ml).
(§2) * Penicillinase-producing bacteria

Kl. pneumoniae Y-4* = conditions: Klebsiella pneumoniae, 20 h, Kl. pneumoniae Y-4, penicillinase-producing; 10^6 cells per ml; read-out: MIC
Text: as §1, §2

E. coli TK-3* = conditions: Escherichia coli, 20 h
Text: as §1, §2

Ps. aeruginosa GN3379* = conditions: Pseudomonas aeruginosa, Ps. aeruginosa GN3379, penicillinase-producing, 10^6 cells per ml
Text: as §1, §2

Pro. vulgaris GN76** = conditions: Proteus vulgaris
Text: as §1
(§3) ** Cephalospolinase-producing bacteria

Ps. aeruginosa GN918** = conditions: Pseudomonas aeruginosa, 20 h; Ps. aeruginosa GN918, cephalospolinase-producing; 10^6 cells per ml; read-out: MIC
Text: as §1, §3

E. coli GN5482** = conditions: Escherichia coli, 20 h; E. coli GN5482, cephalospolinase-producing; 10^6 cells per ml; read-out: MIC
Text: as §1, §3

Kl. pneumoniae Y-41 = conditions: Klebsiella pneumoniae, Y41, 10^6 cells per ml, 37° C., 20 hours, read-out: MIC
Text: as §1

Ps. aeruginosa IFO3445 = conditions: Pseudomonas aeruginosa
Text: as §1

Pro. mirabilis T-111 = conditions: Proteus mirabilis, 37° C.
Text: as §1

Aci. antitratus A-6 = conditions: 20 h, Aci. antitratus A-6; 10^6 cells per ml; 37° C., 20 hours; read-out: MIC
Text: as §1

Pro. vulgaris GN3027 = conditions: Proteus vulgaris, GN3027, 20 h, Pro. vulgaris GN3027; 10^6 cells per ml; 37° C., 20 hours; read-out: MIC
Text: as §1

E. coli TK-111 = conditions: Escherichia coli, TK111, 20 h
Text: as §1

Ps. aeruginosa S-68 = conditions: Pseudomonas aeruginosa
Text: as §1

Ent. cloacae IID977 = conditions: Enterobacter cloacae, IID977, 20 h
Text: as §1

Kl. pneumoniae Y-50 = conditions: Klebsiella pneumoniae, Y50, 20 h, 10^6 cells per ml, 37° C., read-out: MIC
Text: as §1

E. coli NIHJ JC-2 = conditions: Escherichia coli, NIHJJC2, 20 h
Text: as §1

Pro. morganii T-216 = conditions: Morganella morganii, 37° C.
Text: as §1

St. aureus FDA209P = conditions: Staphylococcus aureus, FDA209P, 20 h, St. aureus FDA209P; 10^6 cells per ml; 37° C., 20 hours; read-out: MIC
Text: as §1

[1] = E. coli TK-3, penicillinase-producing, 10^6 cells per ml, read-out: MIC
[2] = 20 h, Pro. vulgaris GN76, cephalospolinase-producing, 10^6 cells per ml, read-out: MIC
[3] = T111, 10^6 cells per ml, 20 hours, read-out: MIC
[4] = E. coli TK-111, 10^6 cells per ml, 37° C., 20 hours, read-out: MIC
[5] = Ent. cloacae IID977, 10^6 cells per ml, 37° C., 20 hours, read-out: MIC
[6] = E. coli NIHJ JC-2, 10^6 cells per ml, 37° C., 20 hours, read-out: MIC
[7] = T216, 10^6 cells per ml, 20 hours, read-out: MIC
[8] = S68, Ps. aeruginosa S-68, 10^6 cells per ml, 37° C., 20 hours, read-out: MIC
[9] = Ps. aeruginosa IFO3445, 10^6 cells per ml, 37° C., 20 hours, read-out: MIC

| Compound | MIC (St. aureus F-137*) | MIC (Kl. pneumoniae Y-4*) | MIC (E. coli TK-3*; [1]) | MIC (Pro. vulgaris GN76**; [2]) | MIC (Ps. aeruginosa GN918**) | MIC (E. coli GN5482**) | MIC (Kl. pneumoniae Y-41) | MIC (Ps. aeruginosa IFO3445; IFO3445, 20 h) | MIC (Pro. mirabilis T-111; [3]) | MIC (Aci. antitratus A-6) | MIC (Pro. vulgaris GN3027) | MIC (E. coli TK-111; [4]) | MIC (Ent. cloacae IID977; [5]) | MIC (Kl. pneumoniae Y-50) | MIC (E. coli NIHJ JC-2; [6]) | MIC (Pro. morganii T-216; [7]) | MIC (St. aureus FDA209P) | MIC (Ps. aeruginosa S-68; [8]) | MIC (Ps. aeruginosa GN3379*; 20 h, read-out: MIC) | MIC (Ps. aeruginosa IFO3445; [9]) | further results |
| --- | --- | --- | --- | --- | --- | --- | --- | --- | --- | --- | --- | --- | --- | --- | --- | --- | --- | --- | --- | --- | --- |
| O=C(O)c1cn(-c2ccc(O)cc2F)c(-c2cc3ccccc3s2)cc1=O | ≤ 0.05 µg/mL | 1.56 µg/mL (≈ 4.09 µM) | 0.39 µg/mL (≈ 1.02 µM) | 0.2 µg/mL (≈ 0.524 µM) | 3.13 µg/mL (≈ 8.21 µM) | ≤ 0.05 µg/mL | 1.56 µg/mL (≈ 4.09 µM) | 1.56 µg/mL (≈ 4.09 µM) | 0.78 µg/mL (≈ 2.05 µM) | 0.1 µg/mL (≈ 0.262 µM) | ≤ 0.05 µg/mL | ≤ 0.05 µg/mL | 0.39 µg/mL (≈ 1.02 µM) | 0.2 µg/mL (≈ 0.524 µM) | 0.2 µg/mL (≈ 0.524 µM) | 0.78 µg/mL (≈ 2.05 µM) | ≤ 0.05 µg/mL | – | – | – | MIC (Ps. aeruginosa GN3379*; GN3379, 20 h): 1.56 µg/mL (≈ 4.09 µM); MIC (Ps. aeruginosa S-68; S68, 20 h): 1.56 µg/mL (≈ 4.09 µM) |
| CC(=O)Oc1ccc(-n2cc(C(=O)O)c(=O)cc2-c2cc3ccccc3s2)c(F)c1 | ≤ 0.05 µg/mL | 3.13 µg/mL (≈ 7.39 µM) | 0.39 µg/mL (≈ 0.921 µM) | 0.39 µg/mL (≈ 0.921 µM) | 6.25 µg/mL (≈ 14.8 µM) | ≤ 0.05 µg/mL | 3.13 µg/mL (≈ 7.39 µM) | 3.13 µg/mL (≈ 7.39 µM) | 1.56 µg/mL (≈ 3.68 µM) | 0.2 µg/mL (≈ 0.472 µM) | 0.1 µg/mL (≈ 0.236 µM) | ≤ 0.05 µg/mL | 0.78 µg/mL (≈ 1.84 µM) | 0.39 µg/mL (≈ 0.921 µM) | 0.39 µg/mL (≈ 0.921 µM) | 1.56 µg/mL (≈ 3.68 µM) | 0.1 µg/mL (≈ 0.236 µM) | 1.56 µg/mL (≈ 3.68 µM) | – | – | MIC (Ps. aeruginosa GN3379*; GN3379, 20 h): 3.13 µg/mL (≈ 7.39 µM) |
| O=C(O)c1cn(-c2ccc(O)cc2)c(-c2ccc(-c3cccs3)cc2)cc1=O | ≤ 0.05 µg/mL | 0.78 µg/mL (≈ 2 µM) | 0.39 µg/mL (≈ 1 µM) | 0.2 µg/mL (≈ 0.514 µM) | 6.25 µg/mL (≈ 16 µM) | ≤ 0.05 µg/mL | 1.56 µg/mL (≈ 4.01 µM) | 1.56 µg/mL (≈ 4.01 µM) | 0.39 µg/mL (≈ 1 µM) | 0.1 µg/mL (≈ 0.257 µM) | ≤ 0.05 µg/mL | ≤ 0.05 µg/mL | 0.39 µg/mL (≈ 1 µM) | 0.2 µg/mL (≈ 0.514 µM) | 0.1 µg/mL (≈ 0.257 µM) | 0.39 µg/mL (≈ 1 µM) | ≤ 0.05 µg/mL | 3.13 µg/mL (≈ 8.04 µM) | 3.13 µg/mL (≈ 8.04 µM) | – | – |
| O=C(O)c1cn(-c2ccc(O)cc2)c(-c2cc3ccccc3s2)cc1=O | ≤ 0.05 µg/mL | 0.78 µg/mL (≈ 2.15 µM) | 0.39 µg/mL (≈ 1.07 µM) | 0.2 µg/mL (≈ 0.55 µM) | 3.13 µg/mL (≈ 8.61 µM) | ≤ 0.05 µg/mL | 0.78 µg/mL (≈ 2.15 µM) | – | 0.78 µg/mL (≈ 2.15 µM) | 0.2 µg/mL (≈ 0.55 µM) | ≤ 0.05 µg/mL | ≤ 0.05 µg/mL | 0.39 µg/mL (≈ 1.07 µM) | 0.2 µg/mL (≈ 0.55 µM) | 0.2 µg/mL (≈ 0.55 µM) | 0.39 µg/mL (≈ 1.07 µM) | ≤ 0.05 µg/mL | 0.78 µg/mL (≈ 2.15 µM) | 3.13 µg/mL (≈ 8.61 µM) | 3.13 µg/mL (≈ 8.61 µM) | – |
| CN(C)c1ccc(-c2cc(=O)c(C(=O)O)cn2-c2ccc(F)cc2O)cc1 | 0.2 µg/mL (≈ 0.543 µM) | 6.25 µg/mL (≈ 17 µM) | – | – | 50 µg/mL (≈ 136 µM) | ≤ 0.05 µg/mL | 6.25 µg/mL (≈ 17 µM) | – | – | 0.78 µg/mL (≈ 2.12 µM) | 0.39 µg/mL (≈ 1.06 µM) | – | – | 1.56 µg/mL (≈ 4.23 µM) | 0.78 µg/mL (≈ 2.12 µM) | 3.13 µg/mL (≈ 8.5 µM) | 0.2 µg/mL (≈ 0.543 µM) | 12.5 µg/mL (≈ 33.9 µM) | 25 µg/mL (≈ 67.9 µM) | 12.5 µg/mL (≈ 33.9 µM) | MIC (E. coli TK-3*): 1.56 µg/mL (≈ 4.23 µM); MIC (Pro. vulgaris GN76**; GN76, 20 h): 1.56 µg/mL (≈ 4.23 µM); MIC (Pro. mirabilis T-111; T111, 20 h, 10^6 cells per ml): 6.25 µg/mL (≈ 17 µM); MIC (E. coli TK-111): 1.56 µg/mL (≈ 4.23 µM); MIC (Ent. cloacae IID977): 1.56 µg/mL (≈ 4.23 µM) |
| O=C(O)c1cn(-c2ccc(F)cc2)c(-c2sccc2-c2ccc([N+](=O)[O-])cc2)cc1=O | 0.1 µg/mL (≈ 0.229 µM) | 6.25 µg/mL (≈ 14.3 µM) | 3.13 µg/mL (≈ 7.17 µM) | 3.13 µg/mL (≈ 7.17 µM) | 12.5 µg/mL (≈ 28.6 µM) | 0.2 µg/mL (≈ 0.458 µM) | 6.25 µg/mL (≈ 14.3 µM) | – | – | 0.78 µg/mL (≈ 1.79 µM) | 0.39 µg/mL (≈ 0.894 µM) | 0.2 µg/mL (≈ 0.458 µM) | 3.13 µg/mL (≈ 7.17 µM) | 1.56 µg/mL (≈ 3.57 µM) | – | – | 0.28 µg/mL (≈ 0.642 µM) | 12.5 µg/mL (≈ 28.6 µM) | 25 µg/mL (≈ 57.3 µM) | 12.5 µg/mL (≈ 28.6 µM) | MIC (Pro. mirabilis T-111; T111, 20 h, 10^6 cells per ml): 6.25 µg/mL (≈ 14.3 µM); MIC (E. coli NIHJ JC-2): 1.56 µg/mL (≈ 3.57 µM); MIC (Pro. morganii T-216; T216, 20 h, 10^6 cells per ml): 1.56 µg/mL (≈ 3.57 µM) |
